Activity calls are given as the source filed them.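 The calls were made as follows: active = hERG flux cut by over 30% at some tested dose, with a fitted dose response curve; inactive = no hERG inhibition at any dose or no curve.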
Molecular target: Voltage-gated inwardly rectifying potassium channel KCNH2 (Homo sapiens) (UniProt Q12809)
Assay: hERG channel inhibition in selectivity testing, SAR follow-up, selectivity assay for TASK1 inhibitor project, FluxOR thallium flux, concentration-response, CHO cells (AID 652194)
Settings: hERG-expressing cells, FluxOR thallium flux fluorescence; for flux ratio, lower = inhibition: at 30 µM (top of the series)

Chain of Voltage-gated inwardly rectifying potassium channel KCNH2 (Homo sapiens) (Q12809 whole entry, looked up): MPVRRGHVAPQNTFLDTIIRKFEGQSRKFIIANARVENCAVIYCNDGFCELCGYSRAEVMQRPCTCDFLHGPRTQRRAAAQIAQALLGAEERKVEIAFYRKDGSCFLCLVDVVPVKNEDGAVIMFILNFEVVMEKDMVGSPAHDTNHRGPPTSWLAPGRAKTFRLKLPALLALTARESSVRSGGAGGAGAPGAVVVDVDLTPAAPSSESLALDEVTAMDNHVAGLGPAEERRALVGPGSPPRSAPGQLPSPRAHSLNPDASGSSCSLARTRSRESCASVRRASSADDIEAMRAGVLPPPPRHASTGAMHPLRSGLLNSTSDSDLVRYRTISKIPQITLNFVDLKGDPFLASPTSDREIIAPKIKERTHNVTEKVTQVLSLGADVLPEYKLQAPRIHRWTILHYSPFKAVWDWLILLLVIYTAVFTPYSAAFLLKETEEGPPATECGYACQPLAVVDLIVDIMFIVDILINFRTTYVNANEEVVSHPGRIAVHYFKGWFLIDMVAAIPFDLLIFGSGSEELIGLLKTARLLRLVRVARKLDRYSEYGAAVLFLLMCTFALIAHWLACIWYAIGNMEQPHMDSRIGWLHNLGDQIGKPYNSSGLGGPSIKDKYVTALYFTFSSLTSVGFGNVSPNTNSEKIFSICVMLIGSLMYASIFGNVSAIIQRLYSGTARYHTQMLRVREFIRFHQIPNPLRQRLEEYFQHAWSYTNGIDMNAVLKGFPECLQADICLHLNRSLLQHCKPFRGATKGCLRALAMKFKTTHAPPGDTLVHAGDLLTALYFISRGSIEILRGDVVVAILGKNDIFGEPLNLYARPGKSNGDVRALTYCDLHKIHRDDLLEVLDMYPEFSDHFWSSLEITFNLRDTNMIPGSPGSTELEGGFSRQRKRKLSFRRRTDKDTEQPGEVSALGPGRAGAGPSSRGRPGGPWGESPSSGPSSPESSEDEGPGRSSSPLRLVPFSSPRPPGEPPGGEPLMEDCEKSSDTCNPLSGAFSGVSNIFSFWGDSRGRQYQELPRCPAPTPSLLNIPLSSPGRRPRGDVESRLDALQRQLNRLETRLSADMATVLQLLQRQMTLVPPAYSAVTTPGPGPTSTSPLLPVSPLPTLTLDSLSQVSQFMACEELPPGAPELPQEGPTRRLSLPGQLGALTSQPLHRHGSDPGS

SMILES | flux ratio, lower = inhibition | IC50 [µM]
COc1ccccc1C(=O)Nc1cc(NC(=O)c2cccc(C)c2)ccc1F | inactive | 
CCOc1ccccc1C(=O)Nc1cccc(NC(=O)C2CCCC2)c1 | inactive | 
Cc1cccc(C(=O)Nc2cccc(NC(=O)C3CCCCC3)c2)c1 | inactive | 
CN(C)c1ccc(C(=O)Nc2cccc(NC(=O)c3ccccc3)c2)cc1 | inactive | 
O=C(Nc1cccc(NC(=O)c2ccccc2)c1)c1ccccc1 | inactive | 
Cc1cccc(C(=O)Nc2cccc(NC(=O)c3cccc(F)c3)c2)c1 | inactive | 
COc1cccc(OC)c1C(=O)Nc1cccc(NC(=O)c2cccc(C)c2)c1 | inactive | 
CC(C)(C)c1ccc(C(=O)Nc2cccc(NC(=O)c3ccccc3)c2)cc1 | inactive | 
COc1ccccc1NC(=O)c1cccc(NC(=O)CC2CCCC2)c1 | inactive | 
Cc1cccc(C(=O)Nc2cccc(NC(=O)c3ccccc3OC(F)(F)F)c2)c1 | inactive | 
CCOc1ccccc1C(=O)Nc1cccc(NC(=O)c2ccccc2C(F)(F)F)c1 | inactive | 
CCOc1ccccc1NC(=O)c1cccc(NC(=O)C(C)(C)C)c1 | inactive | 
Cc1cccc(C(=O)Nc2ccccc2NC(=O)c2ccccc2)c1 | inactive | 
COc1ccccc1NC(=O)c1cccc(NC(=O)c2ccccc2C(F)(F)F)c1 | inactive | 
Cc1cccc(C(=O)Nc2cccc(NC(=O)c3ccccc3Cl)c2)c1 | inactive | 
COc1ccccc1NC(=O)c1cccc(NC(=O)C2CCCCC2)c1 | inactive | 
CCOc1ccccc1NC(=O)c1cccc(NC(=O)c2cccc(OC)c2)c1 | inactive | 
COc1ccc(F)cc1C(=O)Nc1cccc(NC(=O)c2cccc(C)c2)c1 | inactive | 
COc1ccccc1C(=O)Nc1cccc(NC(=O)c2ccccc2OC)c1 | inactive | 
CCOc1ccccc1NC(=O)c1cccc(NC(=O)c2ccccc2OC)c1 | inactive | 
COc1cccc(C(=O)Nc2cccc(NC(=O)c3ccccc3)c2)c1 | inactive | 
CCOc1ccccc1NC(=O)c1cccc(NC(=O)C2CC2)c1 | inactive | 
Cc1cccc(C(=O)Nc2cccc(NC(=O)c3ccc(Cl)cc3)c2)c1 | inactive | 
O=C(Nc1cccc(NC(=O)c2ccc(C(F)(F)F)cc2)c1)c1ccccc1 | inactive | 

SMILES | flux ratio, lower = inhibition | IC50 [µM]
COc1c(F)cccc1C(=O)Nc1cccc(NC(=O)c2cccc(C)c2)c1 | inactive | 
CCOc1ccccc1NC(=O)c1cccc(NC(=O)CC2CCCCC2)c1 | inactive | 
CCOc1ccccc1NC(=O)c1cccc(C(=O)NC2CCCC2)c1 | inactive | 
CCOc1ccccc1NC(=O)c1cccc(NC(=O)c2ccccc2OC(F)(F)F)c1 | inactive | 
O=C(Nc1cccc(NC(=O)c2ccsc2)c1)c1ccccc1 | inactive | 
CCOc1ccc(NC(=O)c2cccc(NC(=O)C3CCCC3)c2)cc1 | inactive | 
O=C(Nc1ccccc1Cl)c1cccc(NC(=O)C2CCCC2)c1 | inactive | 
CCOc1ccccc1NC(=O)c1cccc(NC(=O)C2CCOC2)c1 (stereo not given) | inactive | 
Cc1ccccc1C(=O)Nc1cccc(NC(=O)c2ccccc2)c1 | inactive | 
CCOc1ccccc1NC(=O)c1cccc(NC(=O)C2CCCCC2)c1 | inactive | 
O=C(Nc1cccc(NC(=O)c2cccc(F)c2)c1)c1ccccc1 | inactive | 
Cc1cccc(C(=O)Nc2ccccc2C(=O)Nc2ccccc2)c1 | inactive | 
Cc1cccc(C(=O)Nc2cccc(NC(=O)c3cccc(C(F)(F)F)c3)c2)c1 | inactive | 
O=C(Nc1cccc(NC(=O)c2ccccc2C(F)(F)F)c1)c1ccccc1 | inactive | 
Cc1cccc(C(=O)Nc2cccc(NC(=O)c3ccccc3C(F)(F)F)c2)c1 | inactive | 
CCOc1ccccc1NC(=O)c1cccc(NC(=O)c2cccc(C(F)(F)F)c2)c1 | inactive | 
CCOc1ccccc1NC(=O)c1cccc(NC(=O)C2CCCO2)c1 (stereo not given) | inactive | 
Cc1cccc(C(=O)Nc2cccc(NC(=O)c3ccccc3)c2)c1 | inactive | 
Cc1cccc(S(=O)(=O)Nc2cccc(NC(=O)c3ccccc3)c2)c1 | inactive | 
COc1ccccc1NC(=O)c1cccc(NC(=O)c2ccccc2OC)c1 | inactive | 
O=C(Nc1cccc(NC(=O)c2ccc(F)cc2)c1)c1ccccc1 | inactive | 
CCOc1ccccc1NC(=O)c1cccc(NC(=O)c2ccccc2C(F)(F)F)c1 | inactive | 
CCOc1ccccc1NC(=O)c1cccc(NC(=O)C2CCCC2)c1 | inactive | 
O=C(Nc1cccc(NC(=O)c2cccnc2)c1)c1ccccc1 | inactive | 

SMILES | flux ratio, lower = inhibition | IC50 [µM]
O=C(Nc1cccc(NC(=O)c2cccc(C(F)(F)F)c2)c1)c1ccccc1 | inactive | 
CCOc1ccccc1NC(=O)c1cccc(NC(=O)c2ccc(C)cc2)c1 | inactive | 
COc1ccccc1C(=O)Nc1cccc(NC(=O)c2ccccc2OC(F)(F)F)c1 | inactive | 
CCOc1ccccc1NC(=O)c1cccc(NC(=O)c2ccccc2)c1 | inactive | 
O=C(Nc1cccc(NC(=O)c2ccoc2)c1)c1ccccc1 | inactive | 
CCOc1ccccc1NC(=O)c1cccc(NC(=O)c2cccc(Cl)c2)c1 | inactive | 
COc1cnccc1C(=O)Nc1cccc(NC(=O)c2cccc(C)c2)c1 | inactive | 
Cc1cccc(C(=O)Nc2cccc(NC(=O)c3ccccc3C(C)C)c2)c1 | inactive | 
CCOc1ccccc1C(=O)Nc1cccc(NC(=O)c2cccc(C)c2)c1 | inactive | 
COc1ccccc1C(=O)Nc1cccc(NC(=O)c2ccccc2C)c1 | inactive | 
Cc1cccc(C(=O)Nc2cccc(C(=O)Nc3ccccc3)c2)c1 | inactive | 
CCOc1ccccc1NC(=O)c1cccc(NC(=O)c2ccc(Cl)cc2)c1 | inactive | 
COc1ccccc1NC(=O)c1cccc(NC(=O)c2ccccc2)c1 | inactive | 
Cc1cccc(C(=O)Nc2cccc(NC(=O)c3ccccc3OCC(C)C)c2)c1 | inactive | 
Cc1cccc(NC(=O)c2cccc(NC(=O)c3ccccc3)c2)c1 | inactive | 
Cc1cccc(C(=O)Nc2cccc(NC(=O)c3ccccc3C)c2)c1 | inactive | 
CC(C)c1ccccc1C(=O)Nc1cccc(NC(=O)c2ccccc2OC(F)(F)F)c1 | inactive | 
CCOc1ccccc1C(=O)Nc1cccc(NC(=O)c2ccccc2OC)c1 | inactive | 
Cc1cccc(C(=O)Nc2cccc(NC(=O)c3cccc(C)c3)c2)c1 |  | 12.4
Cc1cccc(C(=O)Nc2cccc(NC(=O)c3ccc(C(F)(F)F)cc3)c2)c1 | inactive | 
CCOc1ccccc1NC(=O)c1cccc(NC(=O)c2ccccc2C)c1 | inactive | 
Cc1cccc(C(=O)Nc2cccc(NC(=O)c3ccc(N(C)C)cc3)c2)c1 | inactive | 
CCOc1ccccc1NC(=O)c1cccc(NC(=O)c2ccc(OC)cc2)c1 | inactive | 
O=C(Nc1cccc(NC(=O)C2CCCCC2)c1)c1ccccc1 | inactive | 

SMILES | flux ratio, lower = inhibition | IC50 [µM]
COc1ccc(C(=O)Nc2cccc(NC(=O)c3cccc(C)c3)c2)cc1 | inactive | 
O=C(Nc1cccc(NC(=O)c2cccc(Cl)c2)c1)c1ccccc1 | inactive | 
COc1ccccc1C(=O)Nc1cccc(NC(=O)c2cccc(C)c2)c1 | inactive | 
CCOc1ccccc1NC(=O)c1cccc(NC(=O)c2cccc(C)c2)c1 | inactive | 
COc1ccccc1C(=O)Nc1cccc(NC(=O)c2ccccc2C(C)C)c1 | inactive | 
Cc1cccc(C(=O)Nc2cccc(NC(=O)c3ccco3)c2)c1 | inactive | 
COc1cccc(C(=O)Nc2cccc(NC(=O)c3cccc(C)c3)c2)c1 | inactive | 
O=C(Nc1cccc(NC(=O)c2cccs2)c1)c1ccccc1 | inactive | 
COc1ccccc1C(=O)Nc1cccc(NC(=O)c2cccc3ccccc23)c1 | inactive | 
COc1ccccc1C(=O)Nc1cccc(NC(=O)c2ccccc2)c1 | inactive | 
CC(C)Oc1ccccc1C(=O)Nc1cccc(NC(=O)c2ccccc2OC(F)(F)F)c1 | inactive | 
O=C(Nc1cccc(NC(=O)c2ccccc2Cl)c1)c1ccccc1 | inactive | 
Cc1cccc(NC(=O)c2ccccc2NC(=O)c2ccccc2)c1 | inactive | 
O=C(Nc1cccc(NC(=O)c2ccccn2)c1)c1ccccc1 | inactive | 
O=C(Nc1cccc(NC(=O)c2ccncc2)c1)c1ccccc1 | inactive | 
CCOc1ccccc1NC(=O)c1cccc(NC(=O)c2ccccc2Cl)c1 | inactive | 
Cc1cccc(C(=O)Nc2cccc(NC(=O)c3ccncc3)c2)c1 | inactive | 
O=C(Nc1cccc(NC(=O)c2ccco2)c1)c1ccccc1 | inactive | 
COc1ccccc1C(=O)Nc1cc(NC(=O)c2ccccc2C(C)C)ccc1F | inactive | 
CCOc1ccccc1NC(=O)c1cccc(NC(=O)c2ccc(C(F)(F)F)cc2)c1 | inactive | 
Cc1cccc(C(=O)Nc2cccc(NC(=O)c3cccs3)c2)c1 | inactive | 
O=C(Nc1cccc(NC(=O)c2ccc(Cl)cc2)c1)c1ccccc1 | inactive | 
COc1ccc(C(=O)Nc2cccc(NC(=O)c3ccccc3)c2)cc1 | inactive | 
